The source of these data is patent publication US6576675B1, “Z-styryl sulfone anticancer agents” (Temple University - Of the Commonwealth System of Higher …, priority 1999, dated 2003).

Common to all, as to type: cell-based
For assay [1], the system named is Prostate cell lines: LnCaP, DU-145. The experiment in a line: Viability assay (Trypan blue exclusion), prostate tumor cell lines. Conditions: 2.5 mM, 72 hours, read-out: % Death, tumor cell type Prostate. How it is done:
(§1) The effect of the Z-styryl sulfones on normal fibroblasts and on tumor cells of breast, prostate and ovarian origin was examined utilizing the following cell lines: breast tumor cell lines: MCF-7, BT-20 and 435; prostate tumor cell lines LnCaP and DU-145; and ovarian tumor cell lines OVCAR and SKOV3. NIH/3T3 and HFL cells, which are normal murine and human fibroblasts, respectively, were also tested. LnCap is an androgen-dependent prostate tumor cell line. MCF-7 is an estrogen-responsive breast tumor cell line, while BT-20 and 435 are estrogen-unresponsive breast tumor cell lines. MCF-7, BT-20 and 435 were grown in Dulbecco's modified Eagle's medium (DMEM) containing 10% fetal bovine serum supplemented with penicillin and streptomycin. LnCaP and Du145 were cultured in RPMI with 10% fetal bovine serum containing penicillin and streptomycin. NIH3T3 and HFL cells were grown in DMEM containing 10% calf serum supplemented with penicillin and streptomycin. All cell cultures were maintained at 37° C. in a humidified atmosphere of 5% CO2.
(§2) Cells were treated with test compound at 2.5 mM concentration and cell viability was determined after 72 hours by the Trypan blue exclusion method.
(§3) Activity for each compound is reported as a range of cell induced death (% Death) with the lowest activity in the range of 10-20% and the highest being above 75%.

Assay [2] concerns Breast cell lines: MCF-7, BT-20, 435. In words: Viability assay (Trypan blue exclusion), breast tumor cell lines. The note with it: 2.5 mM, 72 hours, read-out: % Death, tumor cell type Breast. The procedure: as §1, §2, §3
Assay [3] concerns Glioma cell lines: U87, SW1088. In words: Viability assay (Trypan blue exclusion), glioma cell lines. The note with it: Homo sapiens, 2.5 mM, 72 hours, read-out: % Death, tumor cell type Glioma. The procedure:
as §2, §3
(§4) The procedure of Example 22 was followed for certain of the (Z)-benzylsulfones, substituting the following cancer cell lines: lung, N417 and H157; renal, CAKI-1 and CAKI-2; glioma, U87 and SW1088.

For assay [4], the system named is Lung cell lines: N417, H157. In words: Viability assay (Trypan blue exclusion), lung tumor cell lines. The note with it: 2.5 mM, 72 hours, read-out: % Death, tumor cell type Lung. The procedure: as §2, §3, §4
Assay [5] has as its system Renal cell lines: CAKI-1, CAKI-2. In words: Viability assay (Trypan blue exclusion), renal tumor cell lines. The note with it: 2.5 mM, 72 hours, read-out: % Death, tumor cell type Renal. How it is done: as §2, §3, §4
Assay [6] has as its system Ovarian cell lines: OVCAR, SKOV3. In words: Viability assay (Trypan blue exclusion), ovarian tumor cell lines. Conditions: Homo sapiens, 2.5 mM, 72 hours, read-out: % Death, tumor cell type Ovarian. How it is done:
as §1, §2, §3

Regarding `O=S(=O)(/C=C\c1ccc(F)cc1)Cc1ccc(F)cc1` [Example 12, Z-4-Fluorostyryl 4-Fluorobenzylsulfone], the cytotoxicity at 2500 µM in assay [1], in assay [2], in assay [3], in assay [4], in assay [5] and in assay [6] was 40 to 50% each time.

For `Cc1ccc(/C=C\S(=O)(=O)Cc2ccc(F)cc2)cc1` [Example 20, Z-4-Methylstyryl 4-Fluorobenzylsulfone], the cytotoxicity at 2500 µM in assay [1], in assay [2], in assay [3], in assay [4], in assay [5] and in assay [6] was 20 to 25% in each case.

As to `O=S(=O)(/C=C\c1ccc(F)cc1)Cc1ccccc1Cl` [Example 11, Z-4-Fluorostyryl 2-Chlorobenzylsulfone], the cytotoxicity at 2500 µM in assay [1], in assay [2], in assay [3], in assay [4], in assay [5] and in assay [6] was 20 to 25% each time.

Regarding `O=S(=O)(/C=C\c1ccc(F)cc1)Cc1ccccc1` [Example 9, Z-4-Fluorostyryl Benzylsulfone], the cytotoxicity at 2500 µM in assay [1], in assay [2] and in assay [6] was 20 to 25% in each case.

Consider `O=S(=O)(/C=C\c1ccccc1)Cc1ccc(Cl)cc1` [Example 2, Z-styryl 4-Chlorobenzylsulfone], for which the cytotoxicity at 2500 µM in assay [1], in assay [2] and in assay [6] was 20 to 25% each time.

On to `O=S(=O)(/C=C\c1ccc(Br)cc1)Cc1ccc(Cl)cc1` [Example 14, Z-4-Bromostyryl 4-Chlorobenzylsulfone], for which the cytotoxicity at 2500 µM in assay [1], in assay [2], in assay [3], in assay [4], in assay [5] and in assay [6] was > 75% each time.

As for `O=S(=O)(/C=C\c1ccc(Cl)cc1)Cc1ccccc1` [Example 5, Z-4-Chlorostyryl Benzylsulfone], the cytotoxicity at 2500 µM in assay [1], in assay [2], in assay [3], in assay [4], in assay [5] and in assay [6] was 20 to 25% throughout.

For the molecule `O=S(=O)(/C=C\c1ccc(Br)cc1)Cc1ccccc1Cl` [Example 15, Z-4-Bromostyryl 2-Chlorobenzylsulfone], the cytotoxicity at 2500 µM in assay [1], in assay [2], in assay [3], in assay [4], in assay [5] and in assay [6] was 20 to 25% each time.

Regarding `O=S(=O)(/C=C\c1ccc(Cl)cc1)Cc1ccc(F)cc1` [Example 8, Z-4-Chlorostyryl 4-Fluorobenzylsulfone], the cytotoxicity at 2500 µM in assay [1], in assay [2], in assay [3], in assay [4], in assay [5] and in assay [6] was > 75% throughout.

On to `O=S(=O)(/C=C\c1ccc(Br)cc1)Cc1ccccc1` [Example 13, Z-4-Bromostyryl Benzylsulfone], for which the cytotoxicity at 2500 µM in assay [1], in assay [2] and in assay [6] was 20 to 25% throughout.

On to `O=S(=O)(/C=C\c1ccccc1)Cc1ccc(F)cc1` [Example 4, Z-styryl 4-Fluorobenzylsulfone], for which the cytotoxicity at 2500 µM in assay [1], in assay [2] and in assay [6] was 20 to 25% in each case.

Regarding `O=S(=O)(/C=C\c1ccc(Cl)cc1)Cc1ccc(Cl)cc1` [Example 6, Z-4-Chlorostyryl 4-Chlorobenzylsulfone], the cytotoxicity at 2500 µM in assay [1], in assay [2], in assay [3], in assay [4], in assay [5] and in assay [6] was 60 to 70% each time.

`O=S(=O)(/C=C\c1ccc(F)cc1)Cc1ccc(Cl)cc1` [Example 10, Z-4-Fluorostyryl 4-Chlorobenzylsulfone]: the cytotoxicity at 2500 µM in assay [1], in assay [2], in assay [3], in assay [4], in assay [5] and in assay [6] was 60 to 70% each time.

As for `O=S(=O)(/C=C\c1ccccc1)Cc1ccccc1Cl` [Example 3, Z-styryl 2-Chlorobenzylsulfone], the cytotoxicity at 2500 µM in assay [1], in assay [2] and in assay [6] was 20 to 25% throughout.

With `O=S(=O)(/C=C\c1ccccc1)Cc1ccccc1` [Example 1, Z-styryl Benzylsulfone], the cytotoxicity at 2500 µM in assay [1], in assay [2] and in assay [6] was 10 to 20% throughout.

On to `O=S(=O)(/C=C\c1ccc(Cl)cc1)Cc1ccccc1Cl` [Example 7, Z-4-Chlorostyryl 2-Chlorobenzylsulfone], for which the cytotoxicity at 2500 µM in assay [1], in assay [2], in assay [3], in assay [4], in assay [5] and in assay [6] was 20 to 25% each time.

In the case of `O=S(=O)(/C=C\c1ccc(Br)cc1)Cc1ccc(F)cc1` [Example 16, Z-4-Bromostyryl 4-Fluorobenzylsulfone], the cytotoxicity at 2500 µM in assay [1], in assay [2], in assay [3], in assay [4], in assay [5] and in assay [6] was 60 to 70% in each case.

Turning to `Cc1ccc(/C=C\S(=O)(=O)Cc2ccc(Cl)cc2)cc1` [Example 18, Z-4-Methylstyryl 4-Chlorobenzylsulfone], the cytotoxicity at 2500 µM in assay [1], in assay [2], in assay [3], in assay [4], in assay [5] and in assay [6] was 20 to 25% in each case.

Take `Cc1ccc(/C=C\S(=O)(=O)Cc2ccccc2)cc1` [Example 17, Z-4-Methylstyryl Benzylsulfone]: the cytotoxicity at 2500 µM in assay [1], in assay [2] and in assay [6] was 20 to 25% throughout.

Consider `Cc1ccc(/C=C\S(=O)(=O)Cc2ccccc2Cl)cc1` [Example 19, Z-4-Methylstyryl 2-Chlorobenzylsulfone], for which the cytotoxicity at 2500 µM in assay [1], in assay [2] and in assay [6] was 20 to 25% in each case.
